Format in all cases: cell-based, human
In one assay the test system is IL-6 mRNA in HPBMCs. Kind of assay: IL-6 gene expression in HPBMCs, real-time PCR. The note with it: 1 μM SD, 6 hours. Here is the method:
FIG. 2(a) illustrates both the effect of CRP on IL-6 secretion from HPBMCs and its modulation by a p38 inhibitor. 8×10^5 HPBMCs were plated in 96-well. After 1 hour medium was removed and cells were incubated with or without 10 μg/ml of purified human CRP in serum-free RPMI 1640. In parallel experiments cells were treated with 10% FCS together with the CRP treatment. For the p38 antagonism, the p38 inhibitor was added to a final concentration of 1 μM in the parallel treatment. After 6 hours the conditioned medium was collected and IL-6 and IL-8 levels were determined by ELISA. FIG. 2(b) illustrates the effects of p38 inhibitor concentration on CRP induced IL-6 secretion from HPBMCs. 3×10^5 HPBMCs were plated in 96-well. After 1 hour medium was removed and cells were incubated with 10 μg/ml of purified human CRP plus 10% FCS in the presence of varying concentrations of p38 inhibitor. After 4 hours conditioned medium were collected and IL-6 level was determined by ELISA. […] After 6 hours RNA was extracted from the cells and IL-6 expression level was determined by real-time PCR as described in Experimental section. […]
(§1) RNA was extracted from the cells using Qiagen RNA extraction kit according to the manufacturer's instruction. The expression of pro-inflammatory genes IL-1β, IL-6, IL-8, TNFα, COX-2, ET-1, TF were assessed by real-time PCR. […]

Another assay has as its system TF mRNA in HPBMCs. Kind of assay: Tissue Factor mRNA expression in HPBMCs, real-time PCR. As to conditions: 1 μM SD, 6 hours. As to the method:
The figures illustrate the effects of CRP on TF protein and mRNA expression in HPBMCs and their modulation by p38 inhibitor. 1.5×10^6 HPBMCs were plated in 48-well. After 1 hour medium was removed and cells were incubated with or without 10 μg/ml of purified human CRP in serum-free RPMI 1640. In parallel experiments, cells were treated with 10% FCS together with the CRP treatment. For the p38 antagonism, p38 inhibitor was added to a final concentration of 1 μM in the parallel treatment. After 16 hours cells were lysed and TF protein level was determined by Western blot. TF signal was normalized by GAPDH signal. As shown in FIG. 7(c), after 6 hours TF mRNA level were determined by real-time PCR as described in the Experimental section. […]
as §1
Real-time RT-PCR was performed in a two-step manner. cDNA synthesis and real-time detection were carried out in a PTC-100™ Thermal Cycler (MJ Research Inc, Waltham, Mass.) and an ABI Prism™ 7700 Sequence Detection System (Applied Biosystems, Foster City, Calif.), respectively. […] Relative quantitation of gene expression was performed using the relative standard curve method. […]
(In general: In qPCR the cycle at which signal appears reflects the starting amount.)

The next assay has as its system IL-8 mRNA in HPBMCs. Put plainly: IL-8 gene expression in HPBMCs, real-time PCR. The note with it: 1 μM SD. Here is the method: (§2) 8×10^5 HPBMCs were plated in 96-well. After 1 hour medium was removed and cells were incubated with or without 10 μg/ml of purified human CRP in serum-free RPMI 1640. In parallel experiments cells were treated with 10% FCS together with the CRP treatment. For the p38 antagonism, p38 inhibitor was added to a final concentration of 1 μM in the parallel treatment. After 6 hours conditioned medium were collected and IL-6 and IL-8 levels were determined by ELISA. […] 5×10^6 HPBMCs were plated in 6-well. After 1 hour medium was removed and cells were treated with vehicle or 1 μM p38 inhibitor in RPMI 1640 medium. After 1 hour cells were stimulated with 10% FCS only or 10 μg/ml CRP plus 10% FCS. After 2 hours RNA was extracted from the cells and IL-8 expression level was determined by real-time PCR as described in the Experimental section.
Cryopreserved human peripheral blood monocytes (HPBMCs, from Biowitker, Walkersvill, Md.) were thawed and washed twice in RPMI 1640. Cells were plated in tissue culture plates and incubated in 5% CO2 at 37 C. After 1 hr media were removed and cells were treated with various treatments. […]
as §1

The test system of assay [1] is IL-8 secretion from HPBMCs. Kind of assay: IL-8 secretion from HPBMCs, ELISA. The note with it: 1 μM SD pre-treatment, all the conditions (control, CRP, FCS, CRP plus FCS), 6 hours. As to the method:
as §2
Cryopreserved human peripheral blood monocytes (HPBMCs, from Biowitker, Walkersvill, Md.) were thawed and washed twice in RPMI 1640. Cells were plated in tissue culture plates and incubated in 5% CO2 at 37 C. […]
Conditioned media from the treated cells were collected (6 to 20 hrs), and the level of secreted interleukin 6 (IL-6), interleukin 1 beta (IL-1 β), tumor necrosis factor alpha (TNFα), and interleukin 8 (IL-8) was determined by ELISA according to the manufacturer's instruction (Biosource International, Camarillo, Calif.). […]
For orientation: An ELISA detects its analyte on a solid surface through an enzyme-linked reagent.

“Also recorded” adds a separate entry of the source.

On to `C[C@@H]1CN(Cc2ccc(F)cc2)[C@@H](C)CN1C(=O)c1cc2c(C(=O)C(=O)N(C)C)c[nH]c2cc1Cl` [Compound 162], for which the “inhibition of FCS invoked IL-6 mRNA expression” value in the assay on IL-6 mRNA in HPBMCs is “almost completely blocked”. The “inhibition of CRP invoked IL-6 mRNA expression” value in the assay with IL-6 mRNA in HPBMCs (CRP plus 10% FCS) is reported as “almost completely blocked”. Besides, the “inhibition of basal TF mRNA expression” value with TF mRNA in HPBMCs is given as “almost completely inhibitied”. For the same compound, the “inhibition of CRP induced TF mRNA expression” value in the assay on TF mRNA in HPBMCs (listed as SD) is “almost completely inhibitied; also recorded: blocked”. Also, the “inhibition of FCS invoked IL-8 expression” value in the assay with IL-8 mRNA in HPBMCs is “almost completely inhibited”. Further, the “inhibition of CRP increased IL-8 mRNA level” value in the assay on IL-8 mRNA in HPBMCs (at 6 hours) is “almost completely inhibited”. Further, the “inhibition of IL-8 secretion” value in assay [1] was “almost completely inhibited”.

(Values after patent US20060019971A1, “Treatment of cardiovascular disease with inhibitors of p38 kinase” (priority 2003, published 2006).)
